{
  "source": "patent US8697713B2",
  "about": "“Pyrrolopyrimidines for pharmaceutical compositions” (Boehringer Ingelheim International GmbH, priority 2006, dated 2014)",
  "origin": "cited, not measured here",
  "key": {"[1]": {"molecular_target": "human Mnk2 protein (Homo sapiens, UniProt Q9HBH9)", "sequence (Q9HBH9 whole entry)": "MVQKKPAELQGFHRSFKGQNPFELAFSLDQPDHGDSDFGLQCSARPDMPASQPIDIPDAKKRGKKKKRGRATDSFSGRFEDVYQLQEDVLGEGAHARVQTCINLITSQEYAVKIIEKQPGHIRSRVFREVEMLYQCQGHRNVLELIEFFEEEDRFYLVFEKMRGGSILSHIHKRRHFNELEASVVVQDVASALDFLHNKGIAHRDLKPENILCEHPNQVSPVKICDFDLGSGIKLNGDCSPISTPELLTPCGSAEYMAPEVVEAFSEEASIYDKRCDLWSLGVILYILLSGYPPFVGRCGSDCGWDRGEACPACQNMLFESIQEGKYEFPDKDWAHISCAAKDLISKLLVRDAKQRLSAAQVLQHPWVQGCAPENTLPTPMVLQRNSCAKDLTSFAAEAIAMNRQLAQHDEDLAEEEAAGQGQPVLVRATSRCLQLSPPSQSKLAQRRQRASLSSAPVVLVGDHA"}, "[2]": {"system": "phosphorylated eIF4E", "conditions": "cell culture cells transfected with Mnk2 (Mnk2a or Mnk2b) or Mnk1"}},
  "data": [
    {"compound": "COC(=O)c1ccc(O)cc1", "note": "[4-hydroxybenzoic acid methyl ester]", "values": [
      {"measurement": "binds the human Mnk2 protein", "setting": "[1]", "result": "binds"}
    ]},
    {"compound": "Nc1ncnc2n[nH]c(Nc3ccc(F)cc3)c12", "note": "[CGP57380]", "values": [
      {"measurement": "reduction of phosphorylated eIF4E", "setting": "[2]", "result": "strong reduction"}
    ]}
  ]
}
